Test results taken from patent US12678477B2, “Antiviral peptoid compositions” (priority 2019, dated 2026).
“And” between values parts separate entries of the source, which are not always exact repeats. Equal values may be shown once.

How the values were obtained:
HSV = settings: acyclovir treatment, given orally; cited from earlier work
[1] = test system: SARS-CoV-2 Isolate USA-WA1/2020; assay: SARS-CoV-2 plaque assay in Vero E6 cells (virus pre-incubated with peptoid); format: cell-based; settings: for % control: plaque count relative to control; for Count (plaques): virus-peptoid incubated two hours at 37° C., Vero E6

Compound | reduction of transmission (HSV) [%] | % control ([1]; 5 μg/ml) | Count (plaques) ([1]; 5 μg/ml) | % control ([1]; 10 μg/ml) | Count (plaques) ([1]; 10 μg/ml) | % control ([1]; 20 μg/ml) | Count (plaques) ([1]; 20 μg/ml) | % control ([1]; 40 μg/ml) [%] | Count (plaques) ([1]; 40 μg/ml)
Nc1nc2c(ncn2COCCO)c(=O)[nH]1 [acyclovir] | 50 |  |  |  |  |  |  |  | 
H-((NLys-Nspe(p-Br)-Nspe(p-Br))2—NH2 [MXB-004] |  | 86.36% and 102.27% | 38 and 45 | 136.36% and 134.09% | 60 and 59 | 54.55% and 56.82% | 24 and 25 | 15.91 | 7
H-(NLys-Nspe-Nspe)4-NH2 [MXB-001] |  | 118.18% and 113.64% | 52 and 50 | 100% and 118.18% | 44 and 52 | 125% | 55 | 104.55 | 46
